Earlier results as cited in US20260216162A1, “SELECTIVE FIASMA TREATMENT” (VALO HEALTH, INC., priority 2023, published 2026).

What was measured:
[1] = test system: acid sphyingomyelinase (ASMase); settings: final concentration of 10 µM, 30 minutes, 37° C.; normalized to control cells treated with the solvent alone

## CNCCC(Oc1ccc(C(F)(F)F)cc1)c1ccccc1 (stereo not drawn) [Fluoxetine]
[1]
  Residual ASMase Activity (%): 13.0%

## Fc1ccc([C@@H]2CCNC[C@H]2COc2ccc3c(c2)OCO3)cc1 [Paroxetine]
[1]
  Residual ASMase Activity (%): 31.7%
other
  Log P: 3.9
